Patent publication US12686676B2, “Compound, endothelin-A receptor antagonist, and pharmaceutical composition” (Alchemedicine, Inc., priority 2021, dated 2026)

Legend:
CYP2C9 = molecular target: T1, CYP2C9 (Homo sapiens, UniProt P11712); test: CYP2C9 inhibitory effect (liver microsome fraction, diclofenac substrate); assay type: in vitro ADME; conditions: liver microsome fraction 0.5 mg/mL, diclofenac 2.5 μM
T1 construct: A frozen liver microsome fraction was thawed on ice; from tissue; host or cells: liver microsome fraction
T1 sequence (P11712 whole entry): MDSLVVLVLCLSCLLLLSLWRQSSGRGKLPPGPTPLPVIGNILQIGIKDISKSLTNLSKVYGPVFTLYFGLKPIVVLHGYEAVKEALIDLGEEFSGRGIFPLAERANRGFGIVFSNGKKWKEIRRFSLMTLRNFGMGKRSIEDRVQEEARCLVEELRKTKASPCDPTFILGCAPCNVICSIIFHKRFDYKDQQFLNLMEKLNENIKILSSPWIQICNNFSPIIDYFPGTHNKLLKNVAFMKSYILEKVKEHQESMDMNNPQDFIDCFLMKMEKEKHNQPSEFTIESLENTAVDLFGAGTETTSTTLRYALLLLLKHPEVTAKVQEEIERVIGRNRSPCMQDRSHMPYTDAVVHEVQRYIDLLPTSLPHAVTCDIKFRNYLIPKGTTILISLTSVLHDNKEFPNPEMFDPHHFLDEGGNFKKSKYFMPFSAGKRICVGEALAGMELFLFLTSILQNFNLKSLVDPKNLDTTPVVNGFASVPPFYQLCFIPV
Procedure: The inhibitory effect on CYP2C9 was evaluated by the following method. • (1) A frozen liver microsome fraction was thawed on ice and diluted with a potassium phosphate buffer (PPB) to a final concentration of 0.5 mg/mL. • (2) A substrate for evaluation (diclofenac: D6899 from Sigma-Aldrich Co. LLC) was added thereto such that its final concentration was 2.5 μM. • (3) The mixture was slowly mixed and incubated at 37±1° C. for 5 minutes to prepare a reaction solution. • (4) 801 μL of the reaction solution was dispensed to each tube, and an evaluation compound serially diluted with 0.9 μL of DMSO was added thereto such that its final concentration was 9.1 to 20000 nM (⅓ dilutions with 8 concentrations). In this context, 0.9 μL of DMSO was added to a negative control group, and 0.9 μL of sulfaphenazole (S0758 from Sigma-Aldrich Co. LLC) adjusted to a final concentration of 1 μM with DMSO was added to a positive control group. • (5) After mixing, a 270 μL aliquot was transferred to each of two fresh tubes and incubated in a shaking water bath at 37±1° C. for 5 minutes. • (6) Reaction was started by the addition of 30 μL of 10 mM NADPH, and the tubes were incubated at 37° C.±1° C. for 10 minutes. • (7) The tubes were taken out of the shaking water bath, and the reaction was terminated by the addition of 300 μL of a reaction stop solution. After mixing, the tubes were centrifuged at 1021×g at 4° C. for 20 minutes. • (8) The amount of the substrate for evaluation metabolized was determined by LC-MS/MS to calculate the rate of inhibition at each concentration of the evaluation compound. • (9) IC50 values were calculated using GraphPad Prism5. A sample having an IC50 value of 1 μM or lower was given “++”; a sample having an IC50 value in the range of higher than 1 μM and 10 μM or lower was given “+”; and a sample having an IC50 value of higher than 10 μM was given “−”.

[1] = PAMPA membrane permeability test; assay type: in vitro ADME; conditions: 10 μM, room temperature, 16 hours
Procedure: The membrane permeability test was carried out using PAMPA. The specific method is as follows. • (1) Lecithin was added at 2% (w/v) into a dodecane solution and completely dissolved. • (2) 5 μL of the lecithin/dodecane solution was added to each well of a donor plate. In this respect, a pipette tip was positioned in no contact with the membrane. • (3) Immediately thereafter, 150 μL of a donor solution (5% DMSO-PBS) containing an evaluation compound (10 μM) was added to each well of the donor plate, and 300 μL of an aqueous buffer was added to each well of a PTFE acceptor plate. • (4) The donor plate filled with the donor solution containing the evaluation compound was slowly placed on the acceptor plate, and the undersurface of the membrane was confirmed to be in contact with the buffer in all the wells. • (5) After covering, the apparatus was incubated at room temperature for 16 hours. • (6) After incubation, 100 μL of the solution was recovered from each of the upper surface and the undersurface of the membrane in the acceptor plate, and acetonitrile containing an equal amount of an internal standard was added thereto. • (7) The concentration of the evaluation compound was measured to calculate a permeation rate.
A sample having a membrane permeation rate value of 1×10^−8 cm/sec or lower was given “C”; a sample having a value in the range of higher than 1×10^−8 cm/sec and 10×10^−8 cm/sec or lower was given “B”; and a sample having a value of higher than 10×10^−8 cm/sec was given “A”.

[2] = molecular target: T2, human endothelin A receptor (Homo sapiens, UniProt P25101); test: Endothelin A receptor inhibitory effect (aequorin light emission, endothelin at EC80); assay type: cell-based; conditions: for IC50: CHO-K1-mt aequorin cells expressing human endothelin A receptor, endothelin at EC80, read-out: ETA receptor inhibitory effect; for ETA selectivity (ETB/ETA): ETB IC50 value/ETA IC50 value
T2 construct: expressed in transfected cells; host or cells: CHO-K1-mt aequorin cells
T2 sequence (P25101 21-427): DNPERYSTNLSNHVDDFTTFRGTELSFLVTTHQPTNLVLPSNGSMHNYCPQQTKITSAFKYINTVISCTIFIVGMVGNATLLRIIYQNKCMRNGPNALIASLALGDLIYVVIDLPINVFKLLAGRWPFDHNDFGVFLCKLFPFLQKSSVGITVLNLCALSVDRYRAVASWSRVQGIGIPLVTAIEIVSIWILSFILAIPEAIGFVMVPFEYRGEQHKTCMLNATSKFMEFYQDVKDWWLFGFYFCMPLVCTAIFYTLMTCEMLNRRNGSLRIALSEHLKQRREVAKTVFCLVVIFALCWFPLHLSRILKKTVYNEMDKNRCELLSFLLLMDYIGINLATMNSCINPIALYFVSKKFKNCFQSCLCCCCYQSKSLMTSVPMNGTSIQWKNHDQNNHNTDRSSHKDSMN
Procedure: The inhibitory effect on an endothelin A receptor was studied by the following method.
CHO-K1-mt aequorin cells forced to express a human endothelin A receptor (Accession Number NP_001948.1) were cultured in an antibiotic-free medium for 18 hours, then treated with PBS-EDTA (5 mM EDTA), centrifuged (2 min, 405×g, room temperature), and then suspended in an assay buffer (DMEM/HAM's F12 with HEPES+0.1% BSA protease free).
1×10^6 cells/mL of the cells were incubated at room temperature for 4 hours in the presence of coelenterazine h (Molecular Probes, Inc.) (final concentration: 5 µM). Agonistic reaction based on endothelin was confirmed to determine an endothelin concentration corresponding to EC80.
Subsequently, 50 µL (10000 cells/well) of the cell suspension treated with coelenterazine h and 50 µL of an assay buffer containing a test substance (final concentration: 0.5% in DMSO) were added to each well of a 96-well plate. 15 minutes later, endothelin was added such that its final concentration was an EC80 concentration. Receptor activity was measured as the quantity of light emission in FDSS6000 (Hamamatsu Photonics K.K.). IC50 values were calculated using XLfit (ID Business Solutions Ltd. (IDBS)).

Row | SMILES | IC50 (CYP2C9) | Membrane permeation rate [1] | IC50 [2] | ETA selectivity (ETB/ETA) [2]
1 | Cc1cc2c(cc1C#Cc1ncccc1S(=O)(=O)Nc1noc(C)c1C)C(=O)OC2 [Example 4, N-(4,5-Dimethylisoxazol-3-yl)-2-((6-methyl-3-oxo-1,3-dihydroisobenzofuran-5-yl)ethynyl)pyridine-3-sulfonamide] | > 10000 nM | C (membrane permeation rate value of 1×10^−8 cm/sec or lower) | ≤ 1 nM | ++ (ETB IC50 value/ETA IC50 value of higher than 5000)
2 | Cc1onc(NS(=O)(=O)c2cccnc2C#Cc2cc3c(cc2Cl)COC3)c1C [Example 6, 2-((6-Chloro-1,3-dihydroisobenzofuran-5-yl)ethynyl)-N-(4,5-dimethylisoxazol-3-yl)pyridine-3-sulfonamide] | 1000 to 10000 nM | A (value of higher than 10×10^−8 cm/sec) | 1 to 10 nM | –
3 | Cc1cc2c(cc1C#Cc1ncccc1S(=O)(=O)Nc1noc(C)c1C)C(C)(C)OC2 [Example 1, N-(4,5-Dimethylisoxazol-3-yl)-2-((3,3,6-trimethyl-1,3-dihydroisobenzofuran-5-yl)ethynyl)pyridine-3-sulfonamide] | > 10000 nM | A (value of higher than 10×10^−8 cm/sec) | ≤ 1 nM | ++ (ETB IC50 value/ETA IC50 value of higher than 5000)
4 | COc1nc(C)cnc1NS(=O)(=O)c1cccnc1C#Cc1cc2c(cc1C)COC2(C)C [Example 10, N-(3-Methoxy-5-methylpyrazin-2-yl)-2-((3,3,6-trimethyl-1,3-dihydroisobenzofuran-5-yl)ethynyl)pyridine-3-sulfonamide] | > 10000 nM | A (value of higher than 10×10^−8 cm/sec) | ≤ 1 nM | ++ (ETB IC50 value/ETA IC50 value of higher than 5000)
5 | Cc1onc(NS(=O)(=O)c2cccnc2C#Cc2ccc3c(c2)COC3)c1C [Example 5, 2-((1,3-Dihydroisobenzofuran-5-yl)ethynyl)-N-(4,5-dimethylisoxazol-3-yl)pyridine-3-sulfonamide] | > 10000 nM | B (value in the range of higher than 1×10^−8 cm/sec and 10×10^−8 cm/sec or lower) | 1 to 10 nM | –
6 | Cc1cc2c(cc1C#Cc1ncccc1S(=O)(=O)Nc1noc(C)c1Cl)C(C)(C)OC2 [Example 7, N-(4-Chloro-5-methylisoxazol-3-yl)-2-((3,3,6-trimethyl-1,3-dihydroisobenzofuran-5-yl)ethynyl)pyridine-3-sulfonamide] | 1000 to 10000 nM | A (value of higher than 10×10^−8 cm/sec) | ≤ 1 nM | –
7 | Cc1cc2c(cc1C#Cc1ncccc1S(=O)(=O)Nc1noc(C)c1C)COC2 [Example 3, N-(4,5-Dimethylisoxazol-3-yl)-2-((6-methyl-1,3-dihydroisobenzofuran-5-yl)ethynyl)pyridine-3-sulfonamide] | > 10000 nM | A (value of higher than 10×10^−8 cm/sec) | ≤ 1 nM | ++ (ETB IC50 value/ETA IC50 value of higher than 5000)
8 | Cc1cc2c(cc1C#Cc1ncccc1S(=O)(=O)Nc1onc(C)c1C)C(C)(C)OC2 [Example 8, N-(3,4-Dimethylisoxazol-5-yl)-2-((3,3,6-trimethyl-1,3-dihydroisobenzofuran-5-yl)ethynyl)pyridine-3-sulfonamide] | > 10000 nM | B (value in the range of higher than 1×10^−8 cm/sec and 10×10^−8 cm/sec or lower) | ≤ 1 nM | ++ (ETB IC50 value/ETA IC50 value of higher than 5000)
9 | Cc1cc2c(cc1C#Cc1ncccc1S(=O)(=O)Nc1onc(C)c1Cl)C(C)(C)OC2 [Example 9, N-(4-Chloro-3-methylisoxazol-5-yl)-2-((3,3,6-trimethyl-1,3-dihydroisobenzofuran-5-yl)ethynyl)pyridine-3-sulfonamide] | 1000 to 10000 nM | A (value of higher than 10×10^−8 cm/sec) | ≤ 1 nM | ++ (ETB IC50 value/ETA IC50 value of higher than 5000)
